Data taken from US12357596B2, “Compounds for prevention and treatment of obesity and related disorders” (ABREXA PHARMACEUTICALS, INC., priority 2019, dated 2025).

Test: 28-day once-daily oral gavage toxicity study with 14-day recovery (body weight, food consumption, clinical and anatomic pathology)
Format: in vivo
Conditions: for Decrease of group mean food consumption compared to Group 1 controls: Days 21 to 28
Procedure: J147 or vehicle was administered once daily to Sprague-Dawley rats via oral gavage for 28 consecutive days at a daily dose of 0, 30, 100 or 300 mg/kg. J174 was prepared in a vehicle formulation comprising 5% ethanol, 5% DMSO and 90% corn oil (v/v/v). Certified rodent diet and water was available ad libitum. Groups 1-4 contained 10 animals/sex/group. Groups 1 (control) and 4 (high dose) also included an additional 5 animals/sex/group for use as recovery animals. The recovery animals were maintained on study for a 14-day postdosing recovery period. Animals in Groups 1-4 were monitored for morbidity and mortality, clinical signs, detailed clinical observations, body weight, food consumption, ophthalmologic parameters, neurobehavioral assessment consisting of a Functional Observational Battery (FOB) and a motor activity test, hematology, coagulation, serum chemistry, and urinalysis parameters. Postmortem assessment included necropsy, measurement of selected organ weights, and microscopic evaluation of a standard set of tissues. Plasma samples for bioanalysis were collected on Days 1 and 28 from satellite toxicokinetic animals in Groups 5 through 8. Animals in these groups were euthanized following the last blood sampling and carcasses were discarded without examination. The study protocol is shown below in Table 1.

[1] = Group 2F: female rats, 30 mg/kg/day
[2] = Group 2M: male rats, 30 mg/kg/day
[3] = Group 3F: female rats, 100 mg/kg/day
[4] = Group 3M: male rats, 100 mg/kg/day
[5] = Group 4F: female rats, 300 mg/kg/day
[6] = Group 4M: male rats, 300 mg/kg/day
[7] = female rats, 30 mg/kg/day, Day 7 → 14
[8] = female rats, 30 mg/kg/day, Day 14 → 21
[9] = female rats, 30 mg/kg/day, Day 21 → 28
[10] = female rats, 30 mg/kg/day, Day −1 → 7
[11] = female rats, 100 mg/kg/day, Day 7 → 14
[12] = female rats, 100 mg/kg/day, Day 14 → 21
[13] = female rats, 100 mg/kg/day, Day 21 → 28
[14] = female rats, 100 mg/kg/day, Day 28
[15] = female rats, 100 mg/kg/day, Day −1 → 7
[16] = female rats, 300 mg/kg/day, Day 7 → 14
[17] = female rats, 300 mg/kg/day, Day 14 → 21
[18] = female rats, 300 mg/kg/day, Day 21 → 28
[19] = female rats, 300 mg/kg/day, Day 28
[20] = female rats, 300 mg/kg/day, Day −1 → 7
[21] = male rats, 30 mg/kg/day, Day 7 → 14

COc1cccc(/C=N/N(C(=O)C(F)(F)F)c2ccc(C)cc2C)c1 [J147]
Terminal Body Weight % Diff from Control [1]: −2.4%
Terminal Body Weight (mean) [1]: 238.10 g
Terminal Body Weight % Diff from Control [2]: +1.4%
Terminal Body Weight (mean) [2]: 443.50 g
Terminal Body Weight % Diff from Control [3]: −7.6%
Terminal Body Weight (mean) [3]: 225.43 g
Terminal Body Weight % Diff from Control [4]: −5.69%
Terminal Body Weight (mean) [4]: 412.50 g
Terminal Body Weight % Diff from Control [5]: −14.23%
Terminal Body Weight (mean) [5]: 209.24 g
Terminal Body Weight % Diff from Control [6]: −17.91%
Terminal Body Weight (mean) [6]: 359.05 g
NOAEL at 28 days (both sexes, Sprague-Dawley, rat, in vivo, po): 30 mg/kg/day
Increase in platelet counts (female rats, 30 mg/kg/day): 3.8%
Mean Bodyweight (female rats, 30 mg/kg/day, Day 7): 220.64 g
Food Mean Consumption [7]: 14.89 g/animal/day
Mean Bodyweight Gain [7]: 13.06 g
Mean Bodyweight (female rats, 30 mg/kg/day, Day 14): 233.70 g
Food Mean Consumption [8]: 15.47 g/animal/day
Mean Bodyweight Gain [8]: 9.45 g
Mean Bodyweight (female rats, 30 mg/kg/day, Day 21): 243.15 g
Food Mean Consumption [9]: 15.12 g/animal/day
Mean Bodyweight Gain [9]: 5.08 g
Mean Bodyweight (female rats, 30 mg/kg/day, Day 28): 248.23 g
Mean Bodyweight (female rats, 30 mg/kg/day, Day −1 (pre-dose)): 203.02 g
Food Mean Consumption [10]: 15.49 g/animal/day
Mean Bodyweight Gain [10]: 17.62 g
Mean Bodyweight Gain (female rats, 30 mg/kg/day, Day −1 → 28): 45.21 g
Mean Bodyweight (female rats, 30 mg/kg/day, Day −3 (pre-dose)): 200.70 g
Mean Bodyweight (female rats, 100 mg/kg/day, Day 7): 215.78 g
Food Mean Consumption [11]: 13.85 d^4 g/animal/day
Mean Bodyweight Gain [11]: 9.99 d^3 g
Mean Bodyweight (female rats, 100 mg/kg/day, Day 14): 225.77 d^2 g
Food Mean Consumption [12]: 14.70 g/animal/day
Mean Bodyweight Gain [12]: 7.02 g
Mean Bodyweight (female rats, 100 mg/kg/day, Day 21): 232.79 d^2 g
Food Mean Consumption [13]: 13.98 g/animal/day
Mean Bodyweight Gain [13]: 1.60 g
Decrease of group mean body weight compared to Group 1 controls [14]: 6.9%
Mean Bodyweight [14]: 234.39 g
Mean Bodyweight (female rats, 100 mg/kg/day, Day −1 (pre-dose)): 206.05 g
Food Mean Consumption [15]: 14.33 dd^3 g/animal/day
Mean Bodyweight Gain [15]: 9.73 d^3 g
Mean Bodyweight Gain (female rats, 100 mg/kg/day, Day −1 → 28): 28.34 dd^4 g
Mean Bodyweight (female rats, 100 mg/kg/day, Day −3 (pre-dose)): 201.20 g
Decrease of group mean food consumption compared to Group 1 controls (female rats, 100 mg/kg/day): 8.6%
Food Mean Consumption (female rats, 300 mg/kg/day for 28 days, Day 28 → 35 (recovery)): 22.30 d^4 g/animal/day
Mean Bodyweight Gain (female rats, 300 mg/kg/day for 28 days, Day 28 → 42 (recovery)): 32.82 g
Mean Bodyweight (female rats, 300 mg/kg/day for 28 days, Day 35 (recovery)): 249.62 g
Food Mean Consumption (female rats, 300 mg/kg/day for 28 days, Day 35 → 42 (recovery)): 20.22 g/animal/day
Mean Bodyweight (female rats, 300 mg/kg/day for 28 days, Day 42 (recovery)): 258.24 g
Mean Bodyweight (female rats, 300 mg/kg/day, Day 7): 214.74 g
Food Mean Consumption [16]: 13.81 dd^3 g/animal/day
Mean Bodyweight Gain [16]: 8.25 dd^4 g
Mean Bodyweight (female rats, 300 mg/kg/day, Day 14): 222.99 dd^3 g
Food Mean Consumption [17]: 14.73 g/animal/day
Mean Bodyweight Gain [17]: 5.03 dd^4 g
Mean Bodyweight (female rats, 300 mg/kg/day, Day 21): 228.03 dd^3 g
Food Mean Consumption [18]: 12.91 d^4 g/animal/day
Mean Bodyweight Gain [18]: −7.49 d^3 g
Decrease of group mean body weight compared to Group 1 controls [19]: 12.4%
Mean Bodyweight [19]: 220.53 dd^3 g
Mean Bodyweight (female rats, 300 mg/kg/day, Day −1 (pre-dose)): 207.85 g
Food Mean Consumption [20]: 13.75 dd^3 g/animal/day
Mean Bodyweight Gain [20]: 6.89 dd^4 g
Mean Bodyweight Gain (female rats, 300 mg/kg/day, Day −1 → 28): 12.68 dd^4 g
Mean Bodyweight (female rats, 300 mg/kg/day, Day −3 (pre-dose)): 200.70 g
Decrease of group mean food consumption compared to Group 1 controls (female rats, 300 mg/kg/day): 15.6%
Group mean weight gain from Day −1 to 28 (female rats, Group 2 (30 mg/kg/day)): 45 grams
Group mean weight gain from Day −1 to 28 (female rats, Group 3 (100 mg/kg/day)): 28 grams
Group mean weight gain from Day −1 to 28 (female rats, Group 4 (300 mg/kg/day)): 13 grams
Mean Bodyweight (male rats, 30 mg/kg/day, Day 7): 338.91 g
Mean Bodyweight Gain [21]: 52.38 g
Mean Food Consumption [21]: 24.85
Mean Bodyweight (male rats, 30 mg/kg/day, Day 14): 391.29 g
